Data: patent US7659277B2, “Ubiquitin ligase inhibitors and methods related thereto” (Proteologies, Ltd., priority 2003, dated 2010)

Assays:
Assay type in all cases: biochemical
c-cbl = c-cbl (Homo sapiens, UniProt P22681); experiment: Selectivity (% A in 1 μM), ubiquitin ligase activity of c-cbl; conditions: % activity at 1 μM compound; control is related to 100% activity; HTS protocol
POSH = biological target: T1, POSH (Homo sapiens, UniProt Q7Z6J0); experiment: Selectivity (% A in 1 μM), ubiquitin ligase activity of POSH; conditions: % activity at 1 μM compound; control is related to 100% activity; HTS protocol; read-out: Selectivity (% A* in 1 μM) POSH
T1 construct: GST-POSH lot NB81/p.118 3.6 mg/ml; fused on or other part: GST tag, used for detection with anti-GST XL665
T1 sequence (Q7Z6J0 1-269 limits assumed): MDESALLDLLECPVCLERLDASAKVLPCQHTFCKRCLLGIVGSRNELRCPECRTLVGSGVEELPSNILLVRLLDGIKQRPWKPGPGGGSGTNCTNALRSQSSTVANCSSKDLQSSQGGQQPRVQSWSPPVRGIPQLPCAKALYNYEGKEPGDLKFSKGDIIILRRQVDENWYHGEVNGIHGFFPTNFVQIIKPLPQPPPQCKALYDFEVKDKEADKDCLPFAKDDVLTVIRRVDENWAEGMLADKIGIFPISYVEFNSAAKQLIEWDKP
Protocol: Experimental Protocols: 1. HTS Screening Assay Procedure • Microplates 10109D to 10114D compounds at 1 mM. • (Controls in column 1). • All compounds were perchase from ChemBridge corporation: ChemBridge corporation 16981 Via Tazon, Suite G San Diego, Calif. 92127 a. Microplates Labeling • Put labels to 6 PS U-bottom clear microplate. • Put labels to 18 black microplates (triplicats). b. Microplates Preparation • Put 100 μl GST-POSH at 33 nM in wells of the clear PS U-bottom microplates (exept wells A1-D1). • Negative control: place 100 μl dH2O in wells A1-D1. • (Positive control: place 100 μl GST-POSH at 33 nM in wells E1-H1). • Put 8 μl enzymes solution ×4 to black microplates (column 1 to 11). c. Incubation of E3 with Compounds • Transfer 5 μl of compounds (at 1 mM) to the microplates containing 100 μl GST-POSH. • Add 5 μl of DMSO to controls column 1. • Incubation 30 minutes at RT. d. […] 2. […] Microplates Labeling • Put labels to 4 clear PP clear microplate (18.2 μM, 9.1 uM, 1.82 uM, 910 nM,). • Put labels to 5 clear PS U-bottom clear microplate 4.44 μM, 909, 444, 91 and 44 nM) • Put labels to 15 black microplates (triplicates). f. Original Microplate Dilutions • Put DMSO 40 μl to (18.2 μM, 1.82 uM plates) and 20 ul to (9.1 uM, 910 nM plates. • Mix by pipetation the original microplate (3× up and down 45 μl). • Transfer 10 μl of compounds from the original microplate (at 91 μM) to the next microplate (=18.2 μM) on splitting apparatus. • Mix by pipetation the 18.2 uM microplate (3× up and down 45 μl). • Transfer 20 μl of compounds from the 18.2 uM microplate to the next microplate (=9.1 μM) on splitting apparatus. • Mix by pipetation the 9.1 uM microplate (3× up and down 45 μl). • Transfer 10 μl of compounds from the 9.1 uM microplate to the next microplate (=1.82 μM) on splitting apparatus. • Mix by pipetation the 1.82 uM microplate (3× up and down 45 μl). • Transfer 20 μl of compounds from the 1.82 uM microplate to the next microplate (=910 nM) on splitting apparatus • Mix by pipetation. g. Microplates Preparation • Put 123 μl GST-POSH at 33 nM in wells of the 5 clear PS U-bottom clear microplates. • Positive control: place 123 μl GST-POSH at 33 nM in well A12-h12 13 μl DMSO. • Negative control: place 123 μl dH2O in well B1 and 13 μl DMSO. • Put 8 μl enzymes solution ×4 to 15 black microplates. • Controls: put 8 μl enzymes solution ×4 to wells A1 to F1. h. Incubation of POSH with Compounds • Take 7 μl of compounds at original plate (91 μM) and put into the 4.44 μM labeled microplate containing 123 μl GST-POSH, on splitting apparatus. • Mix by pipetation (3× up and down 115 μl), note time. • Take 7 μl of compounds at 18.2 μM and put into the 910 nM labeled microplate containing 123 μl GST-POSH, on splitting apparatus. • Mix by pipetation (3× up and down 115 μl), note time. • Take 7 μl of compounds at 9.1 μM and put into the 444 nM labeled microplate containing 123 μl GST-POSH, on splitting apparatus. • Mix by pipetation (3× up and down 115 μl), note time. • Take 7 μl of compounds at […] and put into the 91 nM labeled microplate containing 123 μl GST-POSH, on splitting apparatus. • Mix by pipetation (3× up and down 115 μl), note time. • Take 7 μl of compounds at 91.0 nM and put into the 44 nM labeled microplate containing 123 μl GST-POSH, on splitting apparatus. • Mix by pipetation (3× up and down 115 μl), note time. • Incubation 30 minutes at RT. i.

E2 protein = conditions: % activity at 1 μM compound; control is related to 100% activity; HTS protocol
Hmdm2 = Hmdm2 (Homo sapiens, UniProt Q00987); experiment: Selectivity (% A in 1 μM), ubiquitin ligase activity of Hmdm2; conditions: % activity at 1 μM compound; control is related to 100% activity; HTS protocol; read-out: Selectivity (% A* in 1 μM) Hmdm2
Sequence of Hmdm2 (Q00987 whole entry): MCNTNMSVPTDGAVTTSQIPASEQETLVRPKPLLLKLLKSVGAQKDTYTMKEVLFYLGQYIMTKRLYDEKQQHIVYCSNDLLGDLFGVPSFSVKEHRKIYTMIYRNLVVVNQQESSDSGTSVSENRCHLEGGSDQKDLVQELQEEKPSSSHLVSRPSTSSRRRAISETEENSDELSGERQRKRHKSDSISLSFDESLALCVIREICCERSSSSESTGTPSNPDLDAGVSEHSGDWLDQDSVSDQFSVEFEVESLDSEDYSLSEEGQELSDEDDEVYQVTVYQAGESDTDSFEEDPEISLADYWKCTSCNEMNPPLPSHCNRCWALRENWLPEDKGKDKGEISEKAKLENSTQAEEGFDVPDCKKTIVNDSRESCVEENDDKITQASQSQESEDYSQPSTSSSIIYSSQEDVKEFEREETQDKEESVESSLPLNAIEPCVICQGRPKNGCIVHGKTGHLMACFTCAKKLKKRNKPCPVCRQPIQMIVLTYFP

Oc1c(Br)cc(Br)cc1/C=N/c1ccc(Br)cn1 [Compound 61]
remaining activity at 1 µM (c-cbl): 133% | remaining activity at 1 µM (POSH): 35% | Selectivity (% A* in 1 μM) E2 (E2 protein): 52% | remaining activity at 1 µM (Hmdm2): 131%

Cc1cc(C)c(O)c(/N=C/c2c(O)ccc3ccccc23)c1 [Compound 65]
remaining activity at 1 µM (c-cbl): 101% | remaining activity at 1 µM (POSH): 8% | Selectivity (% A* in 1 μM) E2 (E2 protein): 65% | remaining activity at 1 µM (Hmdm2): 98%

O=[N+]([O-])c1ccc(-c2ccc(/N=C/c3c(O)ccc4ccccc34)cc2)cc1 [Compound 60]
remaining activity at 1 µM (c-cbl): 110% | remaining activity at 1 µM (POSH): 22% | Selectivity (% A* in 1 μM) E2 (E2 protein): 53% | remaining activity at 1 µM (Hmdm2): 90%

Oc1c(Br)cc(Br)cc1/C=N/c1cccc2nsnc12 [Compound 112]
remaining activity at 1 µM (c-cbl): 117% | remaining activity at 1 µM (POSH): 27% | Selectivity (% A* in 1 μM) E2 (E2 protein): 84% | remaining activity at 1 µM (Hmdm2): 113%

COc1cc(/C=C2\SC(=O)NC2=O)ccc1OCc1ccc(Cl)cc1Cl [Compound 34]
remaining activity at 1 µM (c-cbl): 135% | remaining activity at 1 µM (POSH): 23% | Selectivity (% A* in 1 μM) E2 (E2 protein): 93% | remaining activity at 1 µM (Hmdm2): 123%

O=C1N=C(c2ccccc2)S/C1=C/c1ccc2ccccc2c1 [Compound 41]
remaining activity at 1 µM (c-cbl): 141% | remaining activity at 1 µM (POSH): 17% | Selectivity (% A* in 1 μM) E2 (E2 protein): 82% | remaining activity at 1 µM (Hmdm2): 106%

COc1cc(N/C=C2/C(=O)NC(=S)N(c3ccc(F)cc3)C2=O)cc(OC)c1 [Compound 17]
remaining activity at 1 µM (POSH): 71% | remaining activity at 1 µM (Hmdm2): 106%

O=C1\C(=C/C=C/C=C/Nc2ccccc2)SC(=S)N1c1ccccc1 [Compound 24]
remaining activity at 1 µM (c-cbl): 90% | remaining activity at 1 µM (POSH): 7% | Selectivity (% A* in 1 μM) E2 (E2 protein): 87% | remaining activity at 1 µM (Hmdm2): 69%

Oc1ccc2ccccc2c1/C=N/c1ncc(Br)cc1Br [Compound 66]
remaining activity at 1 µM (c-cbl): 107% | remaining activity at 1 µM (POSH): 53% | Selectivity (% A* in 1 μM) E2 (E2 protein): 117% | remaining activity at 1 µM (Hmdm2): 120%

CC(C)Oc1ccc(/C=C2/SC(=S)NC2=O)cc1 [Compound 26]
remaining activity at 1 µM (c-cbl): 85% | remaining activity at 1 µM (POSH): 69% | Selectivity (% A* in 1 μM) E2 (E2 protein): 61% | remaining activity at 1 µM (Hmdm2): 98%

O=c1oc2cc(O)ccc2cc1-c1csc(-c2ccc(Cl)cc2)n1 [Compound 40]
remaining activity at 1 µM (c-cbl): 95% | remaining activity at 1 µM (POSH): 24% | Selectivity (% A* in 1 μM) E2 (E2 protein): 117% | remaining activity at 1 µM (Hmdm2): 159%

COC(=O)c1ccc(N2C(=O)c3cccc(N)c3C2=O)cc1 [Compound 21]
remaining activity at 1 µM (c-cbl): 91% | remaining activity at 1 µM (POSH): 83% | Selectivity (% A* in 1 μM) E2 (E2 protein): 75% | remaining activity at 1 µM (Hmdm2): 80%

CC(=C\c1ccccc1)/C=C1/SC(=N)NC1=O [Compound 31]
remaining activity at 1 µM (c-cbl): 108% | remaining activity at 1 µM (POSH): 105% | Selectivity (% A* in 1 μM) E2 (E2 protein): 104% | remaining activity at 1 µM (Hmdm2): 102%

Oc1c(Cl)cc(Cl)cc1/C=N/c1ccc(-c2nc3ccccc3[nH]2)cc1 [Compound 63]
remaining activity at 1 µM (c-cbl): 95% | remaining activity at 1 µM (POSH): 30% | Selectivity (% A* in 1 μM) E2 (E2 protein): 109% | remaining activity at 1 µM (Hmdm2): 102%

COc1ccc(CNc2cccc(N(C)C)c2)cc1 [Compound 106]
remaining activity at 1 µM (c-cbl): 112% | remaining activity at 1 µM (POSH): 27% | Selectivity (% A* in 1 μM) E2 (E2 protein): 88% | remaining activity at 1 µM (Hmdm2): 80%

CCOC(=O)c1c(/N=C/c2cc(Br)ccc2O)sc2c1CCCC2 [Compound 68]
remaining activity at 1 µM (c-cbl): 91% | remaining activity at 1 µM (POSH): 72% | Selectivity (% A* in 1 μM) E2 (E2 protein): 57% | remaining activity at 1 µM (Hmdm2): 110%

COc1ccccc1N1C(=O)NC(=O)/C(=C\C=C\c2ccccc2)C1=O [Compound 10]
remaining activity at 1 µM (POSH): 15% | remaining activity at 1 µM (Hmdm2): 116%

Cc1cc(/N=C/c2c(O)ccc3ccccc23)no1 [Compound 111]
remaining activity at 1 µM (c-cbl): 98% | remaining activity at 1 µM (POSH): 17% | Selectivity (% A* in 1 μM) E2 (E2 protein): 49% | remaining activity at 1 µM (Hmdm2): 72%

O=[N+]([O-])c1ccc(Cl)cc1CN1CCN(CCO)CC1 [Compound 82]
remaining activity at 1 µM (c-cbl): 77% | remaining activity at 1 µM (POSH): 60% | Selectivity (% A* in 1 μM) E2 (E2 protein): 47% | remaining activity at 1 µM (Hmdm2): 120%

O=c1/c(=C/c2cccc([N+](=O)[O-])c2O)sc2nc3ccccc3n12 [Compound 51]
remaining activity at 1 µM (c-cbl): 104% | remaining activity at 1 µM (POSH): 51% | Selectivity (% A* in 1 μM) E2 (E2 protein): 113% | remaining activity at 1 µM (Hmdm2): 80%

O=C1/C(=C\c2ccc(Cl)c([N+](=O)[O-])c2)Sc2ccccc21 [Compound 50]
remaining activity at 1 µM (c-cbl): 155% | remaining activity at 1 µM (POSH): 39% | Selectivity (% A* in 1 μM) E2 (E2 protein): 103% | remaining activity at 1 µM (Hmdm2): 98%

O=C1NC(=O)/C(=C\c2ccc(-c3ccc(F)cc3)o2)S1 [Compound 108]
remaining activity at 1 µM (POSH): 42% | remaining activity at 1 µM (Hmdm2): 108%

Oc1c(Br)cc(Cl)cc1/C=N/c1ccccn1 [Compound 64]
remaining activity at 1 µM (c-cbl): 118% | remaining activity at 1 µM (POSH): 63% | Selectivity (% A* in 1 μM) E2 (E2 protein): 117% | remaining activity at 1 µM (Hmdm2): 115%

O=C1C(=Cc2ccco2)C(=O)N(c2ccccc2)C(=S)N1c1ccccc1 [Compound 13]
remaining activity at 1 µM (POSH): 7% | remaining activity at 1 µM (Hmdm2): 11%

COc1ccc(/C=C2\C(=O)NC(=S)N(c3ccccc3)C2=O)cc1 [Compound 11]
remaining activity at 1 µM (POSH): 21% | remaining activity at 1 µM (Hmdm2): 95%

O=C1NC(=S)N(c2ccccc2)C(=O)/C1=C\c1c(Cl)cccc1Cl [Compound 6]
remaining activity at 1 µM (POSH): 14% | remaining activity at 1 µM (Hmdm2): 129%

COc1cc(C=C2C(=O)N(C)C(=S)N(C)C2=O)ccc1O [Compound 9]
remaining activity at 1 µM (POSH): 91% | remaining activity at 1 µM (Hmdm2): 103%

O=C1NC(=O)N(c2ccc(Br)cc2)C(=O)/C1=C/c1ccc(O)cc1 [Compound 5]
remaining activity at 1 µM (POSH): 13% | remaining activity at 1 µM (Hmdm2): 61%

COc1ccc(CC(C)NCc2ccccc2Cl)cc1 (centres unmarked) [Compound 107]
remaining activity at 1 µM (POSH): 68% | remaining activity at 1 µM (Hmdm2): 113%

COc1ccc(N2C(=O)NC(=O)/C(=C\c3ccc(Cl)cc3)C2=O)cc1 [Compound 7]
remaining activity at 1 µM (POSH): 108% | remaining activity at 1 µM (Hmdm2): 101%

C=CCN1C(=O)NC(=O)/C(=C/c2ccc(F)cc2)C1=O [Compound 12]
remaining activity at 1 µM (POSH): 54% | remaining activity at 1 µM (Hmdm2): 99%

COc1cc(N/C=C2/C(=O)NC(=S)N(c3cccc(C)c3)C2=O)cc(OC)c1 [Compound 16]
remaining activity at 1 µM (POSH): 51% | remaining activity at 1 µM (Hmdm2): 86%
